# Results as given in patent US9023847B2, “Azaheterocyclic compounds” (Merck Patent GmbH, priority 2009, dated 2015).
# Target: T1, P70S6K (T412E mutant, Millipore) (Homo sapiens, UniProt P23443, T412E)
# T1 construct: purchased Millipore
# Assay: p70S6K enzyme assay
# Type: biochemical
# Conditions: class symbol; 3 nM P70S6K, 24 μM ATP; read-out: IC50 (p70S6K)
# Experimental: P70S6K inhibitor compounds are diluted and plated in 96 well plates. A reaction mixture including the following components is then added to the compound plate to initiate the enzyme reaction; P70S6K (3 nM, T412E mutant, Millipore) is mixed with 24 μM ATP in an assay buffer containing 100 mM Hepes (pH 7.5), 5 mM MgCl2, 1 mM DTT, 0.015% Brij and 1 μM of the substrate peptide FITC-AHA-AKRRRLSSLRA-OH (derived from the S6 ribosomal protein sequence, FITC=fluorescein isothiocyanate, AHA=6-aminohexanoic acid). The reaction is incubated for 90 min at 25° C., before the addition of 10 mM EDTA to stop the reaction. The proportion of substrate and product (phosphorylated) peptide is analysed on a Caliper Life Sciences Lab Chip 3000, using a pressure of −1.4 psi, and upstream and downstream voltages of −3000 and −700 respectively. Product peaks are resolved before substrate peaks on the resulting chromatograms.
# T1 sequence (P23443 whole entry T412E): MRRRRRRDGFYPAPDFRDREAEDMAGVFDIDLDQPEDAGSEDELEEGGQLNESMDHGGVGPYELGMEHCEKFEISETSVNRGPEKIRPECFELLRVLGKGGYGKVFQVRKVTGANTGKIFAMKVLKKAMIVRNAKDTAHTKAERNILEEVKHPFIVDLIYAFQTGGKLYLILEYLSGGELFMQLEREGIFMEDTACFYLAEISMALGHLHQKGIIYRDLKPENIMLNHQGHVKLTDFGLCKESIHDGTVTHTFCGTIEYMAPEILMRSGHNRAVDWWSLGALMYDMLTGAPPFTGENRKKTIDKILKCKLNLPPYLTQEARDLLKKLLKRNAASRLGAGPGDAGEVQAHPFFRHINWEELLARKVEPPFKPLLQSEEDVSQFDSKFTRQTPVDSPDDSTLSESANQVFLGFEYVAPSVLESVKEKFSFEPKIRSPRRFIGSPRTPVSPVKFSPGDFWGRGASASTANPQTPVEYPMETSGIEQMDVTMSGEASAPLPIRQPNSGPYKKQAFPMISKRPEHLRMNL
row,SMILES,IC50 [nM]
1,"O=C(NCC1CCCO1)c1sccc1Nc1ccnc2[nH]ccc12 (stereo not drawn) [Example 3, 3-(1H-Pyrrolo[2,3-b]pyridin-4-ylamino)-thiophene-2-carboxylic acid (tetrahydro-furan-2-ylmethyl)-amide]",100 to 1000
2,"O=C(c1sccc1Nc1ccnc2[nH]ccc12)N1CCCC1 [Example 4, Pyrrolidin-1-yl-[3-(1H-pyrrolo[2,3-b]pyridin-4-ylamino)-thiophen-2-yl]-methanone]",100 to 1000
3,"CC(C)(C)OC(=O)N1CCC(NC(=O)c2sccc2Nc2ccnc3[nH]ccc23)C1 (stereo not drawn) [Example 5, 3-{[3-(1H-Pyrrolo[2,3-b]pyridin-4-ylamino)-thiophene-2-carbonyl]-amino}-pyrrolidine-1-carboxylic acid tert-butyl ester]",100 to 1000
4,"O=C(NCc1ccccn1)c1sccc1Nc1ccnc2[nH]ccc12 [Example 7, 3-(1H-Pyrrolo[2,3-b]pyridin-4-ylamino)-thiophene-2-carboxylic acid (pyridin-2-ylmethyl)-amide]",100 to 1000
5,"O=C(NCc1cccnc1)c1sccc1Nc1ccnc2[nH]ccc12 [Example 8, 3-(1H-Pyrrolo[2,3-b]pyridin-4-ylamino)-thiophene-2-carboxylic acid (pyridin-3-ylmethyl)-amide]",100 to 1000
6,"O=C(NC1CCCNC1)c1sccc1Nc1ccnc2[nH]ccc12 (stereo not drawn) [Example 9, 3-(1H-Pyrrolo[2,3-b]pyridin-4-ylamino)-thiophene-2-carboxylic acid piperidin-3-ylamide]",100 to 1000
7,"CC(CO)NC(=O)c1sccc1Nc1ccnc2[nH]ccc12 (stereo not drawn) [Example 10, 3-(1H-Pyrrolo[2,3-b]pyridin-4-ylamino)-thiophene-2-carboxylic acid (2-hydroxy-1-methyl-ethyl)-amide]",100 to 1000
8,"CC(O)CNC(=O)c1sccc1Nc1ccnc2[nH]ccc12 (stereo not drawn) [Example 11, 3-(1H-Pyrrolo[2,3-b]pyridin-4-ylamino)-thiophene-2-carboxylic acid (2-hydroxy-propyl)-amide]",100 to 1000
9,"O=C(NCCOc1ccccc1)c1sccc1Nc1ccnc2[nH]ccc12 [Example 12, 3-(1H-Pyrrolo[2,3-b]pyridin-4-ylamino)-thiophene-2-carboxylic acid (2-phenoxy-ethyl)-amide]",100 to 1000
10,"O=C(NCCc1c[nH]cn1)c1sccc1Nc1ccnc2[nH]ccc12 [Example 15, 3-(1H-Pyrrolo[2,3-b]pyridin-4-ylamino)-thiophene-2-carboxylic acid [2-(1H-imidazol-4-yl)-ethyl]-amide]",100 to 1000
11,"O=C(NCCN1CCOCC1)c1sccc1Nc1ccnc2[nH]ccc12 [Example 16, 3-(1H-Pyrrolo[2,3-b]pyridin-4-ylamino)-thiophene-2-carboxylic acid (2-morpholin-4-yl-ethyl)-amide]",100 to 1000
12,"O=C(NCCc1ccncc1)c1sccc1Nc1ccnc2[nH]ccc12 [Example 17, 3-(1H-Pyrrolo[2,3-b]pyridin-4-ylamino)-thiophene-2-carboxylic acid (2-pyridin-4-yl-ethyl)-amide]",100 to 1000
13,"O=C(NCCc1ccccn1)c1sccc1Nc1ccnc2[nH]ccc12 [Example 19, 3-(1H-Pyrrolo[2,3-b]pyridin-4-ylamino)-thiophene-2-carboxylic acid (2-pyridin-2-yl-ethyl)-amide]",100 to 1000
14,"COc1cccc(CCNC(=O)c2sccc2Nc2ccnc3[nH]ccc23)c1 [Example 26, 3-(1H-Pyrrolo[2,3-b]pyridin-4-ylamino)-thiophene-2-carboxylic acid [2-(3-methoxy-phenyl)-ethyl]-amide]",< 100
15,"O=C(NCCc1ccc(Br)cc1)c1sccc1Nc1ccnc2[nH]ccc12 [Example 27, 3-(1H-Pyrrolo[2,3-b]pyridin-4-ylamino)-thiophene-2-carboxylic acid [2-(4-bromo-phenyl)-ethyl]-amide]",< 100
16,"COc1ccc(CCNC(=O)c2sccc2Nc2ccnc3[nH]ccc23)cc1 [Example 28, 3-(1H-Pyrrolo[2,3-b]pyridin-4-ylamino)-thiophene-2-carboxylic acid [2-(4-methoxy-phenyl)-ethyl]-amide]",< 100
17,"O=C(NCCNCc1ccccc1)c1sccc1Nc1ccnc2[nH]ccc12 [Example 29, 3-(1H-Pyrrolo[2,3-b]pyridin-4-ylamino)-thiophene-2-carboxylic acid (2-benzylamino-ethyl)-amide]",< 100
18,"O=C(NCc1cccc(Cl)c1)c1sccc1Nc1ccnc2[nH]ccc12 [Example 30, 3-(1H-Pyrrolo[2,3-b]pyridin-4-ylamino)-thiophene-2-carboxylic acid 3-chloro-benzylamide]",< 100
19,"O=C(NCCCCO)c1sccc1Nc1ccnc2[nH]ccc12 [Example 31, 3-(1H-Pyrrolo[2,3-b]pyridin-4-ylamino)-thiophene-2-carboxylic acid (4-hydroxy-butyl)-amide]",100 to 1000
20,"CC(=O)NCCCCNC(=O)c1sccc1Nc1ccnc2[nH]ccc12 [Example 32, 3-(1H-Pyrrolo[2,3-b]pyridin-4-ylamino)-thiophene-2-carboxylic acid (4-acetylamino-butyl)-amide]",100 to 1000
21,"CCOC(=O)CCNC(=O)c1sccc1Nc1ccnc2[nH]ccc12 [Example 33, 3-{[3-(1H-Pyrrolo[2,3-b]pyridin-4-ylamino)-thiophene-2-carbonyl]-amino}-propionic acid ethyl ester]",100 to 1000
22,"O=C(NCCNc1ccccc1)c1sccc1Nc1ccnc2[nH]ccc12 [Example 34, 3-(1H-Pyrrolo[2,3-b]pyridin-4-ylamino)-thiophene-2-carboxylic acid (2-phenylamino-ethyl)-amide]",< 100

# The next lines start with the values.
row,IC50 [nM],SMILES
1,< 100,"Cc1ccc([C@@H](CN)NC(=O)c2sccc2Nc2ccnc3[nH]ccc23)cc1 (stereo in doubt) [Example 122, 3-(1H-Pyrrolo[2,3-b]pyridin-4-ylamino)-thiophene-2-carboxylic acid (2-amino-1-p-tolyl-ethyl)-amide]"
2,< 100,"COc1cccc([C@@H](CN)NC(=O)c2sccc2Nc2ccnc3[nH]ccc23)c1 (stereo in doubt) [Example 123, 3-(1H-Pyrrolo[2,3-b]pyridin-4-ylamino)-thiophene-2-carboxylic acid [2-amino-1-(3-methoxy-phenyl)-ethyl]-amide]"
3,< 100,"NC[C@@H](NC(=O)c1sccc1Nc1ccnc2[nH]ccc12)c1cccc(Cl)c1 (stereo in doubt) [Example 124, 3-(1H-Pyrrolo[2,3-b]pyridin-4-ylamino)-thiophene-2-carboxylic acid [2-amino-1-(3-chloro-phenyl)-ethyl]-amide]"
4,< 100,"NC[C@@H](NC(=O)c1sccc1Nc1ccnc2[nH]ccc12)c1ccc(Cl)c(Cl)c1 (stereo in doubt) [Example 125, 3-(1H-Pyrrolo[2,3-b]pyridin-4-ylamino)-thiophene-2-carboxylic acid [2-amino-1-(3,4-dichloro-phenyl)-ethyl]-amide]"
5,< 100,"O=C(NC1CCNC1)c1sccc1Nc1ccnc2[nH]ccc12 (stereo not drawn) [Example 6, 3-(1H-Pyrrolo[2,3-b]pyridin-4-ylamino)-thiophene-2-carboxylic acid pyrrolidin-3-ylamide]"
6,< 100,"O=C(NCCC1=CCCCC1)c1sccc1Nc1ccnc2[nH]ccc12 [Example 13, 3-(1H-Pyrrolo[2,3-b]pyridin-4-ylamino)-thiophene-2-carboxylic acid (2-cyclohex-1-enyl-ethyl)-amide]"
7,< 100,"NS(=O)(=O)c1ccc(CCNC(=O)c2sccc2Nc2ccnc3[nH]ccc23)cc1 [Example 14, 3-(1H-Pyrrolo[2,3-b]pyridin-4-ylamino)-thiophene-2-carboxylic acid [2-(4-sulfamoyl-phenyl)-ethyl]-amide]"
8,< 100,"O=C(NCCc1cccc(C(F)(F)F)c1)c1sccc1Nc1ccnc2[nH]ccc12 [Example 18, 3-(1H-Pyrrolo[2,3-b]pyridin-4-ylamino)-thiophene-2-carboxylic acid [2-(3-trifluoromethyl-phenyl)-ethyl]-amide]"
9,< 100,"O=C(NCCc1cccc(Cl)c1)c1sccc1Nc1ccnc2[nH]ccc12 [Example 20, 3-(1H-Pyrrolo[2,3-b]pyridin-4-ylamino)-thiophene-2-carboxylic acid [2-(3-chloro-phenyl)-ethyl]-amide]"
10,< 100,"O=C(NCCc1cccs1)c1sccc1Nc1ccnc2[nH]ccc12 [Example 21, 3-(1H-Pyrrolo[2,3-b]pyridin-4-ylamino)-thiophene-2-carboxylic acid (2-thiophen-2-yl-ethyl)-amide]"
11,< 100,"O=C(NCCc1cccc(F)c1)c1sccc1Nc1ccnc2[nH]ccc12 [Example 22, 3-(1H-Pyrrolo[2,3-b]pyridin-4-ylamino)-thiophene-2-carboxylic acid [2-(3-fluoro-phenyl)-ethyl]-amide]"
12,< 100,"O=C(NCCc1ccc(F)cc1)c1sccc1Nc1ccnc2[nH]ccc12 [Example 23, 3-(1H-Pyrrolo[2,3-b]pyridin-4-ylamino)-thiophene-2-carboxylic acid [2-(4-fluoro-phenyl)-ethyl]-amide]"
13,< 100,"O=C(NCCSCc1ccco1)c1sccc1Nc1ccnc2[nH]ccc12 [Example 24, 3-(1H-Pyrrolo[2,3-b]pyridin-4-ylamino)-thiophene-2-carboxylic acid [2-(furan-2-ylmethylsulfanyl)-ethyl]-amide]"
14,< 100,"Cc1ccccc1CCNC(=O)c1sccc1Nc1ccnc2[nH]ccc12 [Example 25, 3-(1H-Pyrrolo[2,3-b]pyridin-4-ylamino)-thiophene-2-carboxylic acid (2-o-tolyl-ethyl)-amide]"
